Assay [1] is filed under the species Oryctolagus cuniculus. Briefly: In vitro inhibition of contraction of rabbit aorta strips measured as pA2 calculated by the method of Van Rossum. The conditions noted are these: read-out: pA2 (converted). Type of assay: functional.
Assay [2] has as its target T1, Type-1 angiotensin II receptor (Bos taurus, UniProt P25104).
T1 sequence (P25104 whole entry): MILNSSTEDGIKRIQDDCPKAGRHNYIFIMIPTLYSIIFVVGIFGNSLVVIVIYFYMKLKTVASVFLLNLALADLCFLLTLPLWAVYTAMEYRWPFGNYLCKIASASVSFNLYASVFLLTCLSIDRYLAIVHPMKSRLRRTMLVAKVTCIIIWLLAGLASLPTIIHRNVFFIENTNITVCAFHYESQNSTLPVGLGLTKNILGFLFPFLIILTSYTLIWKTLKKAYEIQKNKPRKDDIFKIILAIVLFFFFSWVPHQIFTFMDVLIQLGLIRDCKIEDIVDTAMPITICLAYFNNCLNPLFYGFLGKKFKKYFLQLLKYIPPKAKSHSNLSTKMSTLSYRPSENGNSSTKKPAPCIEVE
Briefly: Concentration required to inhibit [125I]AII binding to Angiotensin II receptor from membrane fractions of bovine adrenal cortex. The assay is classed as tissue-based.

The species entered for assay [3] is Oryctolagus cuniculus. Put plainly: In vitro inhibition of contraction of rabbit aorta strips measured as pD2 calculated by the method of Van Rossum. The assay is classed as functional.
For assay [4], the species on record is Oryctolagus cuniculus. Put plainly: Percent response at a dose of […] on AII induced contraction in isolated rabbit aorta, expressed as percent of maximal response. Type of assay: functional.
The subject of the next assay is Rattus norvegicus. Put plainly: Inhibitory effect at a dose of 1mg/gk, po on AII induced pressor response at a dose of 100ng/kg, iv in conscious normotensive rats. Type of assay: functional.
Assay [5] is filed under the species Oryctolagus cuniculus. Briefly: Percent response at a dose of 9M on AII induced contraction in isolated rabbit aorta, expressed as percent of maximal response. Type of assay: functional.
Assay [6] is filed under the species Oryctolagus cuniculus. Put plainly: Percent response at a dose of 8M on AII induced contraction in isolated rabbit aorta, expressed as percent of maximal response. Type of assay: functional.

Take `CCCc1cn2nccc2n1Cc1ccc(-c2ccccc2-c2nn[nH]n2)cc1`: the Kb in the assay listed under Oryctolagus cuniculus [1] was 57.5 nM. Further, in assay [2], the IC50 (in general, the midpoint of a concentration-inhibition curve) worked out at 3300 nM.

Take `CCCc1cn2ncc(C(=O)O)c2n1Cc1ccc(-c2ccccc2-c2nn[nH]n2)cc1`: the pD2 in the assay listed under Oryctolagus cuniculus [3] is 9.58. In assay [2], this compound came in with an IC50 of 48 nM.

In the case of `CCCCc1nc2c(C)cnc(C(=O)O)c2n1Cc1ccc(-c2ccccc2-c2nn[nH]n2)cc1`, the pD2 in the assay listed under Oryctolagus cuniculus [3] was 9.16. For the same compound, the IC50 in assay [2] is 36 nM.

`CCCCc1nc2c(C)cncc2n1Cc1ccc(-c2ccccc2-c2nnn[nH]2)cc1`: the Kb in the assay listed under Oryctolagus cuniculus [1] was 12 nM. Besides, the IC50 in assay [2] amounted to 54 nM.

As for `CCSc1nc2c(C)sc(C(=O)O)c2n1Cc1ccc(-c2ccccc2-c2nn[nH]n2)cc1`, the Response in the assay filed under Oryctolagus cuniculus [4] was 65%; in the assay listed under Oryctolagus cuniculus [5] it was 25%. In addition, in the assay filed under Oryctolagus cuniculus [3], the pD2 is on record as 9.65. The compound further showed an IC50 in assay [2] of 500 nM. For the same compound, the Inhibition (as a rule, the change of the read-out against control, counted positive when it falls) in the assay with Rattus norvegicus worked out at 100%.

For the compound `CCOc1nc2ccccc2n1Cc1ccc(-c2ccccc2-c2nnn[nH]2)cc1`, the Kb in the assay listed under Oryctolagus cuniculus [1] was 11.7 nM. Besides, in assay [2], the IC50 was determined as 390 nM.

For the compound `CCSc1nc2c(C)scc2n1Cc1ccc(-c2ccccc2-c2nn[nH]n2)cc1`, the Kb in the assay filed under Oryctolagus cuniculus [1] was 5.5 nM. This compound also displayed an IC50 in assay [2] of 1200 nM. This compound came in with an Inhibition in the assay with Rattus norvegicus of 18%. Moreover, the Response in the assay listed under Oryctolagus cuniculus [6] and in the assay listed under Oryctolagus cuniculus [5] was 85% in each case.

Regarding `CCOc1nc2cccc(C(=O)O)c2n1Cc1ccc(-c2ccccc2-c2nnn[nH]2)cc1` [CANDESARTAN], the pD2 in the assay filed under Oryctolagus cuniculus [3] is on record as 9.97.

The record behind these values is ChEMBL document CHEMBL1150444, “A new class of diacidic nonpeptide angiotensin II receptor antagonists” (Bioorg Med Chem Lett, 1994).
